From PubChem BioAssay AID179 (DTP/NCI, 2004)
Calls of active or inactive are those of the source.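 How the source made its calls: active means compounds giving half or more protection of infected cells from virus-caused growth loss, again on retest; inactive means the rest.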

Tested on: CEM cells HIV-1 protection, formazan growth assay
Assay: NCI AIDS Antiviral Assay
Conditions: for IC50: measured here: growth of uninfected CEM cells
How it was run: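 Protection of CEM cells against HIV-1 was scored from cell growth (soluble formazan) across five concentrations, with parallel uninfected cells. Lack of protection may reflect toxicity.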

CN(C)CCN1C(=O)CC(c2ccccc2)Sc2ccccc21 (stereo not drawn)
EC50: > 245 µM | IC50: > 245 µM

CC(C)(O)C1CCC2(C)CC(=O)NCCN12 (stereo not drawn)
EC50: > 398 µM | IC50: > 398 µM

Cc1nc2ccccc2cc1C[N+]12CN3CN(CN(C3)C1)C2
outcome: inactive

CC1(C)CNC[C@](C)(OCCO)C(=O)[N-]C(C)(C)CNC[C@@](C)(OCCO)C(=O)[N-]1.[Ni+2]
EC50: > 200 µM | IC50: 182 µM

O=C1C=C(Nc2ccccc2C(=O)CC(=O)C(=O)Nc2ccc(Cl)c(Cl)c2)c2ccccc2C1=O
EC50: > 26.9 µM | IC50: > 26.9 µM

CC1=C(C)C(=O)C(C2=CC(=O)C=CC2=O)=C(C2=CC(=O)C=CC2=O)C1=O
EC50: > 200 µM | IC50: 9.77 µM

CC#N.CC#N.COC(=O)[C@@H]1CN(C(=O)CCc2ccccc2)C(=O)[N-]1.COC(=O)[C@@H]1CN(C(=O)CCc2ccccc2)C(=O)[N-]1.COC(=O)[C@@H]1CN(C(=O)CCc2ccccc2)C(=O)[N-]1.COC(=O)[C@@H]1CN(C(=O)CCc2ccccc2)C(=O)[N-]1.[Rh+2].[Rh+2]
EC50: > 200 µM | IC50: 4.37 µM

O=C(CCCN1CC=C(n2c(=O)[nH]c3ccccc32)CC1)c1cccs1
EC50: > 200 µM | IC50: 120 µM

CN(CCNC(=O)c1cc(-c2ccccc2)nc2ccccc12)CCNC(=O)c1cc(-c2ccccc2)nc2ccccc12
EC50: > 20 µM | IC50: 10.5 µM

Clc1ccc(C2SCc3nc4ccccc4n32)cc1 (stereo not drawn)
outcome: inactive

O=P(O)(Cc1ccccc1)OCC1(O)OCC(O)C(O)C1O (stereo not drawn)
EC50: > 200 µM | IC50: > 200 µM

C=CCc1cc(OC)c2c(c1)C(O)CC(c1ccccc1)O2 (stereo not drawn)
EC50: > 170 µM | IC50: > 170 µM

O=C(/C=C/c1ccc(Cl)c(Cl)c1)c1ccc2ccccc2c1
EC50: > 11.5 µM | IC50: > 11.5 µM

Cn1c2c(c3ccccc31)CCN(CCN1CCN(c3ccccc3)CC1)C2=O
outcome: inactive

CCCC(=O)OCC1=CCC2c3c(c4ccccc4n3C)CC1N2Cc1ccccc1 (stereo not drawn)
EC50: > 21.4 µM | IC50: 3.8 µM

Brc1ccccc1C1SCc2nc3ccccc3n21 (stereo not drawn)
outcome: inactive

CCCCCCCCCCCc1cc(=O)c2c(O)cccc2o1
EC50: > 14.8 µM | IC50: > 14.8 µM

S=c1ssc2ccccc12
EC50: > 97.7 µM | IC50: 91.2 µM

CCC[CH2][Sn]([CH2]CCC)([O]C(=O)c1cc(F)ccc1F)[O]C(=O)c1cc(F)ccc1F
EC50: > 13.2 µM | IC50: 1 µM

CC(C)C1=CC23CCC4C(C)(C(=O)O)CCCC4(C)C2CC1C1C(=O)N(c2ccc(N4C(=O)C5C6CC7C8(C)CCCC(C)(C(=O)O)C8CCC7(C=C6C(C)C)C5C4=O)cc2)C(=O)C13 (stereo not drawn)
EC50: > 55 µM | IC50: 3.8 µM

COc1ccc(/C=C2\N=C(SC)NC2=O)cc1
EC50: > 200 µM | IC50: 107 µM

CCOC(=O)c1cc(-c2ccc(OC)c(OC)c2)cn1C
EC50: > 200 µM | IC50: 39.8 µM

Cc1ccc(SSC(=S)Nc2ccccc2)cc1
outcome: inactive

CN1C2(c3ccccc3)c3c(-c4ccccc4)sc(-c4ccccc4)c3C1(c1ccccc1)C1C(=O)N(c3ccccc3)C(=O)C12 (stereo not drawn)
outcome: inactive

COC1/C=C/OC2(C)Oc3c(C)c(O)c4c(O)c(c(/C=N/N5CCN(Cc6cccc(C(F)(F)F)c6)CC5)c(O)c4c3C2=O)NC(=O)C(C)=C/C=C/C(C)C(O)C(C)C(O)C(C)C(OC(C)=O)C1C (stereo not drawn)
EC50: > 200 µM | IC50: 6.92 µM

CCc1cccc2c3c([nH]c12)C(CC)(CC(=O)O)OCC3 (stereo not drawn)
EC50: > 200 µM | IC50: > 200 µM

S=C(N/N=C(/c1ccccc1)c1ccccn1)N(Cc1ccccn1)Cc1ccccn1
EC50: > 200 µM | IC50: 0.0631 µM

CCN(CC)c1ccc2c(c1)N=C1N=CC=CN1C2(c1ccc(N(C)C)cc1)c1ccc(N(C)C)cc1
outcome: inactive

N#CN1C2CCC1CC(=O)C2
EC50: 67.6 µM | IC50: 129 µM

CC(C)CNC(=O)Cn1c(-c2ccccc2)cc2ccccc21
EC50: > 200 µM | IC50: 195 µM

Cc1cc(C)nc(NC(=O)Nc2cccc(C(F)(F)F)c2)c1
EC50: > 200 µM | IC50: > 200 µM

CCN(CC)CC(=O)Nc1ccc(Cc2ccc(NC(=O)CN(CC)CC)cc2)cc1
EC50: > 200 µM | IC50: 16.2 µM

CC(=O)O[C@@H]1C(=O)O[C@@H]2CO[C@H](c3ccccc3)O[C@H]12
EC50: > 200 µM | IC50: > 200 µM

CNc1ncnc2c1ncn2C1OC(CO)CC1F (stereo not drawn)
EC50: 158 µM | IC50: > 200 µM

COC1C=CC23c4cc5c(cc4C(O)OC2CN(C)C3C1)OCO5 (stereo not drawn)
EC50: > 200 µM | IC50: 0.891 µM

CCCCCCCCCCCCCCCCCCNC(=S)NC=C(C(N)=O)C(N)=O
EC50: > 100 µM | IC50: > 100 µM

Nc1ncnc2c1ncn2[C@H]1C(CO)CC1(F)F (stereo partly drawn)
EC50: > 182 µM | IC50: > 182 µM

Cc1nc2sc(CCl)nn2c(=O)c1Cl
EC50: > 200 µM | IC50: 3.98 µM

O=C1C2CC=C3CCS(=O)C3C2C(=O)N1c1ccccc1 (stereo not drawn)
EC50: > 417 µM | IC50: > 417 µM

CCOP(=O)(OCC)C1CC(n2cc(C)c(=O)[nH]c2=O)OC1CO (stereo not drawn)
EC50: > 200 µM | IC50: 182 µM

O=C(/C=C/c1ccc(Cl)cc1)c1ccncc1
EC50: > 40.7 µM | IC50: 38 µM

NNC(=O)CCC(=O)NC1C2CC3CC(C2)CC1C3 (stereo not drawn)
EC50: > 676 µM | IC50: > 676 µM

CCOC(=O)/C=C1\Oc2ccccc2C1(C)O (stereo not drawn)
EC50: > 562 µM | IC50: > 562 µM

O=S(=O)(c1ccccc1)n1c2ccc(Br)cc2c2nc3ccccc3nc21
EC50: > 200 µM | IC50: > 200 µM

Oc1cc(Cl)c(Cl)cc1Cl
outcome: inactive

COC1(OC)c2occc2C(=N)c2ccc(=O)oc21
EC50: > 200 µM | IC50: 129 µM

O=C(NC(=O)c1cn(CCN(CCO)C(=O)NCCCCCCNC(=O)N(CCO)CCn2cc(C(=O)NC(=O)OCc3ccccc3)c(=O)[nH]c2=O)c(=O)[nH]c1=O)OCc1ccccc1
outcome: inactive

CCOC1=NC(O)c2cccn2-c2sccc21 (stereo not drawn)
EC50: > 200 µM | IC50: 126 µM

O=C1OC(=O)C2C3CC(C12)C1C3N1S(=O)(=O)c1ccccc1 (stereo not drawn)
EC50: > 132 µM | IC50: > 132 µM

CC12Nc3ccccc3C1=C(c1ccccc1)CC1C(=O)OC(=O)C12 (stereo not drawn)
EC50: > 15.8 µM | IC50: > 15.8 µM

C/C=C/C=C\C(=O)C1c2cccc(O)c2C(=O)c2c(O)cc(C)cc21 (stereo not drawn)
EC50: > 21.4 µM | IC50: 3.89 µM

CC(=O)NNc1nc(C)c(C(/C=C/c2ccccc2O)=N/NC(=O)c2ccncc2)s1
EC50: > 22.4 µM | IC50: > 22.4 µM

Cc1cn(C2C[C@H]3ONC[C@H]3O2)c(=O)[nH]c1=O (stereo partly drawn)
EC50: > 200 µM | IC50: > 200 µM

COc1cc(C[C@H]2COC(=O)[C@]2(O)Cc2ccc(O)c(OC)c2)ccc1O
EC50: 1.35 µM | IC50: 4.79 µM

CN/N=C(/C=C/c1ccccc1)C(C)C
EC50: > 200 µM | IC50: > 200 µM

CCN(CC)c1ccc(N=C2C=CC(=C(C#N)C#N)c3ccccc32)c(C)c1
outcome: inactive

CC1=CC2=C(C(N)=O)C(=O)OC2(C)C(c2ccccc2)C1 (stereo not drawn)
EC50: > 200 µM | IC50: > 200 µM

NC(=O)N/N=C1/CCCC/C1=C\c1ccccc1
outcome: inactive

OCC(Oc1ccccc1)C(O)C(O)C(CO)Oc1ccccc1 (stereo not drawn)
EC50: > 200 µM | IC50: > 200 µM

CC1(CO)OC(n2cc(C(=O)NC(=O)OCc3ccccc3)c(=O)[nH]c2=O)CC1O (stereo not drawn)
EC50: > 603 µM | IC50: 372 µM

Nc1nnc(N)n1-n1c(N)nnc1N
EC50: > 200 µM | IC50: 166 µM

COC(=O)C(Cc1c[nH]c2ccccc12)NC(=O)C(Cc1c[nH]c2ccccc12)NC(=O)OCc1ccccc1 (stereo not drawn)
outcome: inactive

Cc1cn([C@H]2CS[C@@H](CO)CO2)c(=O)[nH]c1=O
outcome: inactive
